Experimental data taken from patent publication US8629132B2, “Kinase inhibitors” (Genosco, priority 2009, dated 2014).

What was measured:
Assay in all cases: In vitro kinase inhibition profile (Ambit Biosciences)
Type in all cases: binding
Conditions in all cases: reported as percent control, lower numbers indicate stronger activities
ABL1(T315I) = molecular target: T1, ABL1(T315I) (Homo sapiens, UniProt P00519, T315I)
T1 construct: purchased Ambit Biosciences
Protocol: (§1) Up to 518 different kinases have been identified in humans. To determine the scope of inhibitory effects of a representative compound of Formula (I) on known kinases, Compound 82 was tested against 104 commercially available kinases (Ambit Biosciences™). 104 kinases included ABL1(E255K)-phosphorylated, ABL1(T315I)-phosphorylated, ABL1-phosphorylated, ACVR1B, ADCK3, AKT1, AKT2, ALK, AURKA, AURKB, AXL, BMPR2, BRAF, BRAF(V600E), BTK, CDK11, CDK2, CDK3, CDK7, CDK9, CHEK1, CSF1R, CSNK1D, CSNK1G2, DCAMKL1, DYRK1B, EGFR, EGFR(L858R), EPHA2, ERBB2, ERBB4, ERK1, FAK, FGFR2, FGFR3, FLT1, FLT3, FLT4, GSK3B, IGF1R, IKK-α, IKK-β, INSR, JAK2(JH1domain-catalytic), JAK3 (JH1 domain-catalytic), JNK 1, JNK2, JNK3, KIT, KIT(D816V), KIT(V559D,T6701), LKB1, LRRK2, LRRK2(G2019S), MAP3K4, MAPKAPK2, MARKS, MEK1, MEK2, MET, MKNK1, MKNK2, MLK1, MTOR, p38-alpha, p38-beta, PAK1, PAK2, PAK-4, PCTK1, PDGFRA, PDGFRB, PDPK1, PIK3C2B, PIK3CA, PIK3CG, PIM1, PIM2, PIM3, PKAC-alpha, PLK1, PLK3, PLK4, PRKCE, PYK2, RAF1, RET, R10K2, ROCK2, RSK2, SNARK, SRC, SRPK3, SYK, TAK1, TGFBR1, TIE2, TRKA, TSSK1B, TYK2(JH1domain-catalytic), ULK2, VEGFR2, YANK3 and ZAP70.
(§2) Inhibition activity of Compound 82 was reported as percent control where lower numbers indicate stronger activities.

AURKB = molecular target: T2, AURKB (Homo sapiens, UniProt Q96GD4)
T2 construct: purchased Ambit Biosciences
Protocol: as §1, §2

AXL = molecular target: T3, AXL (Homo sapiens, UniProt P30530)
T3 construct: purchased Ambit Biosciences
Protocol: as §1, §2

FLT3 = molecular target: T4, FLT3 (Homo sapiens, UniProt P36888)
T4 construct: purchased Ambit Biosciences
Protocol: as §1, §2

JAK3 = molecular target: T5, JAK3 (Homo sapiens, UniProt P52333)
T5 construct: JAK3 (JH1 domain-catalytic); purchased Ambit Biosciences
Protocol: as §1, §2

KIT = molecular target: T6, KIT (Homo sapiens, UniProt P10721)
T6 construct: purchased Ambit Biosciences
Protocol: as §1, §2

KIT(D816V) = molecular target: T7, KIT(D816V) (Homo sapiens, UniProt P10721, D816V)
T7 construct: purchased Ambit Biosciences
Protocol: as §1, §2

KIT(V559D,T6701) = molecular target: T8, KIT(V559D,T6701) (Homo sapiens, UniProt P10721, T670I/V559D)
T8 construct: purchased Ambit Biosciences
Protocol: as §1, §2

MKNK2 = molecular target: T9, MKNK2 (Homo sapiens, UniProt Q9HBH9)
T9 construct: purchased Ambit Biosciences
Protocol: as §1, §2

MLK1 = molecular target: T10, MLK1 (Homo sapiens, UniProt P80192)
T10 construct: purchased Ambit Biosciences
Protocol: as §1, §2

PDGFRB = molecular target: T11, PDGFRB (Homo sapiens, UniProt P09619)
T11 construct: purchased Ambit Biosciences
Protocol: as §1, §2

PLK3 = molecular target: T12, PLK3 (Homo sapiens, UniProt Q9H4B4)
T12 construct: purchased Ambit Biosciences
Protocol: as §1, §2

RET = molecular target: T13, RET (Homo sapiens, UniProt P07949)
T13 construct: purchased Ambit Biosciences
Protocol: as §1, §2

SNARK = molecular target: T14, SNARK (Homo sapiens, UniProt Q9H093)
T14 construct: purchased Ambit Biosciences
Protocol: as §1, §2

SRPK3 = molecular target: T15, SRPK3 (Homo sapiens, UniProt Q9UPE1)
T15 construct: purchased Ambit Biosciences
Protocol: as §1, §2

SYK = molecular target: T16, SYK (Homo sapiens, UniProt P43405)
T16 construct: Purified full-length human SYK, ZAP70, PIM1, PYK2; purchased Carna Biosciences
Protocol: as §1, §2

TAK1 = molecular target: T17, TAK1 (Homo sapiens, UniProt O43318)
T17 construct: purchased Ambit Biosciences
Protocol: as §1, §2

TYK2 = molecular target: T18, TYK2 (Homo sapiens, UniProt P29597)
T18 construct: TYK2(JH1domain-catalytic); purchased Ambit Biosciences
Protocol: as §1, §2

ZAP70 = molecular target: T19, ZAP70 (Homo sapiens, UniProt P43403)
T19 construct: Purified full-length human SYK, ZAP70, PIM1, PYK2; purchased Carna Biosciences
T19 sequence (P43403 1-619): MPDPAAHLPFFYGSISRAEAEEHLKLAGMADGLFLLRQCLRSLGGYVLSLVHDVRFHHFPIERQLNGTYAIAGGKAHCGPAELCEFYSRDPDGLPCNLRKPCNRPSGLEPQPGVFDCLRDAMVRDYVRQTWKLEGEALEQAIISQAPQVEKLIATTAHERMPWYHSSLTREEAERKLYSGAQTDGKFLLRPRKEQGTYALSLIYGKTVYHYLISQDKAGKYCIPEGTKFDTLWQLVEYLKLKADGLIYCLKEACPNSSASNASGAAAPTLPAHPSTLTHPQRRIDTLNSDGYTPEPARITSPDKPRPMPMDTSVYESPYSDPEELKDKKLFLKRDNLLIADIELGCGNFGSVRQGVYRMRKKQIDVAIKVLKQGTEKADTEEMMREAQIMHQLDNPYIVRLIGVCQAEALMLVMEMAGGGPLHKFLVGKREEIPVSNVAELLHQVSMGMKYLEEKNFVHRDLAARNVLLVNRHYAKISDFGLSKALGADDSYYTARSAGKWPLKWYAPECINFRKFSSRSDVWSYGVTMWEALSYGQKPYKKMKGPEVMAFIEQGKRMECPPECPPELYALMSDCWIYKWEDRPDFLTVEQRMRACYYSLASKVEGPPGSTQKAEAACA
Protocol: as §1, §2

T6 sequence (P10721 26-976): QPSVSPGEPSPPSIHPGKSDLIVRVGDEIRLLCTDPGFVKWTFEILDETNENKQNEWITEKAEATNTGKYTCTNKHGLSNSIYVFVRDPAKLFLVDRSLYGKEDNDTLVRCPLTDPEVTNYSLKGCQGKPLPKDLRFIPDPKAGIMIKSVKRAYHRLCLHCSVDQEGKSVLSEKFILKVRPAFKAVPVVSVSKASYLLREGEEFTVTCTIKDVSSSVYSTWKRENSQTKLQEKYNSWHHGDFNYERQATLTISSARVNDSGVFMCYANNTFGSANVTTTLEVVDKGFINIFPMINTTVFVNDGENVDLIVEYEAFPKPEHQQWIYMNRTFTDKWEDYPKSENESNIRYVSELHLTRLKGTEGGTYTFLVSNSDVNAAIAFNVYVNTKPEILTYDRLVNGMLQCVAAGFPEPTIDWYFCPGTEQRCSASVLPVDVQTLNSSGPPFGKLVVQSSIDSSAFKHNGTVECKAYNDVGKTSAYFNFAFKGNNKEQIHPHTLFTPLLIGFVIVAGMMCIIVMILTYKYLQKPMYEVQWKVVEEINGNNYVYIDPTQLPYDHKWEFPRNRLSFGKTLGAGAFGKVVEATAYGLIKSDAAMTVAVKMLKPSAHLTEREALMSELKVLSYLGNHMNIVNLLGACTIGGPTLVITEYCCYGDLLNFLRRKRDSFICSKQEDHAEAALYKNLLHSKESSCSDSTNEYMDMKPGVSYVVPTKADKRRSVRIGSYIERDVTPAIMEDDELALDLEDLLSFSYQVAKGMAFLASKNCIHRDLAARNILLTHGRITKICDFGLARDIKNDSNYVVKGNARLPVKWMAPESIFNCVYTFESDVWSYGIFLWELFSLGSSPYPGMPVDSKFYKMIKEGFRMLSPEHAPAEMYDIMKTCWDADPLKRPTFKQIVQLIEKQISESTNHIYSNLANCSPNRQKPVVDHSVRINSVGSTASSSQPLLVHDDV
T11 sequence (P09619 33-1106): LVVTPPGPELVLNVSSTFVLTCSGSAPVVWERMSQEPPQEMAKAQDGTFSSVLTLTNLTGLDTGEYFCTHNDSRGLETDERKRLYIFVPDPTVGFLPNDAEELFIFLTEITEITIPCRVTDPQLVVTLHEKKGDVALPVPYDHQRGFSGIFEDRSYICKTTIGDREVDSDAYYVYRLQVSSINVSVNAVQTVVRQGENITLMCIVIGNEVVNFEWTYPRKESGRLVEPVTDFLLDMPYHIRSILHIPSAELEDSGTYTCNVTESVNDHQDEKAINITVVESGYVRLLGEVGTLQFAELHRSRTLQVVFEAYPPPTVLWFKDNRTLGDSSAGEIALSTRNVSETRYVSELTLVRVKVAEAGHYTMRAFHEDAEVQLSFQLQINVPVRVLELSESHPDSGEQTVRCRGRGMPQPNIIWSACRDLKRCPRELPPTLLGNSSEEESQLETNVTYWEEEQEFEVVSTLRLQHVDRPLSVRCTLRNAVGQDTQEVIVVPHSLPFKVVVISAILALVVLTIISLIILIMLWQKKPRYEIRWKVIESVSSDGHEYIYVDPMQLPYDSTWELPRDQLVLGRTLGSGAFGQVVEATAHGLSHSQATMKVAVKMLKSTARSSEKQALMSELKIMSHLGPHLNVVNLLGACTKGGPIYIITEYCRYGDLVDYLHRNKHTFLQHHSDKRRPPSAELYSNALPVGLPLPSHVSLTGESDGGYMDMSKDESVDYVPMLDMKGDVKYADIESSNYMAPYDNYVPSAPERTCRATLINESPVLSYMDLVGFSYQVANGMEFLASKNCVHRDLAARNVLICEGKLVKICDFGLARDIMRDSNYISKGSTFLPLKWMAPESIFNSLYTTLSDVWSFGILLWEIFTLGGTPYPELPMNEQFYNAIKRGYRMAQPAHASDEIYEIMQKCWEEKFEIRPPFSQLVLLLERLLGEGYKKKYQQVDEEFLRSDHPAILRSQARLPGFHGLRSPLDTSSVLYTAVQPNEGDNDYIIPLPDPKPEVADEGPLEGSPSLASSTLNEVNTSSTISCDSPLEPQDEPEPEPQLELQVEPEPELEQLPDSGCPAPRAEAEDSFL
T10 sequence (P80192 whole entry): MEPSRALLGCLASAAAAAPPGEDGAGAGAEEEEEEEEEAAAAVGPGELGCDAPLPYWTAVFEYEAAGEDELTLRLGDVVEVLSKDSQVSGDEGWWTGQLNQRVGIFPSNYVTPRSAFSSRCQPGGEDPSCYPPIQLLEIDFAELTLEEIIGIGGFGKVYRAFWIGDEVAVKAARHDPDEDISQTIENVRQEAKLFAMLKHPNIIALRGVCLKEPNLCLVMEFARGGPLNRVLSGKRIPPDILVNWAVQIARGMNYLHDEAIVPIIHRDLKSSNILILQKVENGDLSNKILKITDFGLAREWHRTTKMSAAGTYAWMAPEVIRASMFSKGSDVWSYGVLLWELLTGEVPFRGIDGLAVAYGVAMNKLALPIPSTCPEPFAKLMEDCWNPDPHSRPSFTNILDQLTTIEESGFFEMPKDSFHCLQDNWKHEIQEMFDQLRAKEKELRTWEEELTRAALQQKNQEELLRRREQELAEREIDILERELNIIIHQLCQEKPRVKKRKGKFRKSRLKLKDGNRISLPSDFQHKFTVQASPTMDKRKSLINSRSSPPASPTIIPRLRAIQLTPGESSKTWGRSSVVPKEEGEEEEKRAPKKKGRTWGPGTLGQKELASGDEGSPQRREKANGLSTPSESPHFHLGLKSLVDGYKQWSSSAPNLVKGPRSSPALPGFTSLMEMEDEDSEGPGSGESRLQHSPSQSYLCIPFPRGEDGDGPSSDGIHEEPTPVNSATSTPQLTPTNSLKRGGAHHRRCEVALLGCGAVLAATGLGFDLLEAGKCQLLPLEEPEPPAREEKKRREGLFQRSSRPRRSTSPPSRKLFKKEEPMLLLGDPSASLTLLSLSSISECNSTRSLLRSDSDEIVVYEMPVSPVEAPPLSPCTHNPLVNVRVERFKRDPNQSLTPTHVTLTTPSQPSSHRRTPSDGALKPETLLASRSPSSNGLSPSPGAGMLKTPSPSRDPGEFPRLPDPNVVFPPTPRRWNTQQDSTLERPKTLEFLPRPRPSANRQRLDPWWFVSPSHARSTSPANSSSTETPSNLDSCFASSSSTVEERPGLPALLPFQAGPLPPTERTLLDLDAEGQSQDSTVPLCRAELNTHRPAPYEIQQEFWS
T15 sequence (Q9UPE1 whole entry): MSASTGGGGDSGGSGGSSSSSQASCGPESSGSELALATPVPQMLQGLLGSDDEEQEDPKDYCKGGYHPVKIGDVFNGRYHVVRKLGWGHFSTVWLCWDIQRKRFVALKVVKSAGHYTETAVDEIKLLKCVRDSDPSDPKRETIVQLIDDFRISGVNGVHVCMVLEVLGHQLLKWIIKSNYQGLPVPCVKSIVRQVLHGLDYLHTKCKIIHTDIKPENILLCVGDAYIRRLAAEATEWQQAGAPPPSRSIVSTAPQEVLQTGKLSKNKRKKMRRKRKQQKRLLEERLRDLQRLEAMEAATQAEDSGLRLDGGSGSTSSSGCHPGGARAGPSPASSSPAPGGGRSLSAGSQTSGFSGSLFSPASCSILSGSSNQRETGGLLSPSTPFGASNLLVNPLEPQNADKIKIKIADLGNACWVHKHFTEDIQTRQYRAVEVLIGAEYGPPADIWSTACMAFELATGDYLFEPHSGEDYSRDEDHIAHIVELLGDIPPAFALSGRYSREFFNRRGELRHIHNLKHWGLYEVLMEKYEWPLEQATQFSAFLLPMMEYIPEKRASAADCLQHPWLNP
T7 sequence (P10721 26-976 D816V): as the sequence (P10721 26-976) above, with D791V counted along it
T8 sequence (P10721 26-976 V559D/T670I): as the sequence (P10721 26-976) above, with V534D, T645I counted along it
T13 sequence (P07949 29-1114): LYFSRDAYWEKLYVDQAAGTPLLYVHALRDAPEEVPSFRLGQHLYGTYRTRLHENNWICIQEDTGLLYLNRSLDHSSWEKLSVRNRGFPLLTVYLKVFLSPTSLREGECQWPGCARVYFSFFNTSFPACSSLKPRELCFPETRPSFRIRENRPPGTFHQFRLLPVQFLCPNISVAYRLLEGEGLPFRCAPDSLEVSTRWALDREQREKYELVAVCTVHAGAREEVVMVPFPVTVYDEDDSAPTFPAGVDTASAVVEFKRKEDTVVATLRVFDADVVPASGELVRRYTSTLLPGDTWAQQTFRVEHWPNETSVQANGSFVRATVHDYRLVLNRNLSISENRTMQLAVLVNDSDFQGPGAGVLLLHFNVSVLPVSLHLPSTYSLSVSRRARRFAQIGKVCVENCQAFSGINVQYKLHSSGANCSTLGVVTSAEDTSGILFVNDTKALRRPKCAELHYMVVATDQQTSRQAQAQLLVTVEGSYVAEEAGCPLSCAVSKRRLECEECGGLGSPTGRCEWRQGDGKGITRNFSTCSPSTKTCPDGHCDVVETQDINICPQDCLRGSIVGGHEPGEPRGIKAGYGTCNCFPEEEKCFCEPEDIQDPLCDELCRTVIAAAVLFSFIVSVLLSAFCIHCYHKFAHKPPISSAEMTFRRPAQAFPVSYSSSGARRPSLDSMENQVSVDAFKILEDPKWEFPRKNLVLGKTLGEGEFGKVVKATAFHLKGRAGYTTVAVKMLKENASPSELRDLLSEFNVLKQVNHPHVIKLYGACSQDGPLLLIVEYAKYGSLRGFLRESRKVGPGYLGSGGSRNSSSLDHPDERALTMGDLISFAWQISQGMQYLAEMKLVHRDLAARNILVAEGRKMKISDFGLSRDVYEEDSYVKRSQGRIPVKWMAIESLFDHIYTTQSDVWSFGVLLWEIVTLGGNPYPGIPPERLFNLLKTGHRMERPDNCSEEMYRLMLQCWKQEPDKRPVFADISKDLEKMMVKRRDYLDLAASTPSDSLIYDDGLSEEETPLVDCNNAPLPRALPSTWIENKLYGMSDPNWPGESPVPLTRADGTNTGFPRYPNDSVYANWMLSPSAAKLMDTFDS

## Cc1cc(C)cc(Nc2ncc(F)c(-n3cc(C)c(CN4CC[C@@H](O)C4)c3)n2)c1 [Compound 82, (R)-1-((1-(2-(3,5-dimethylphenyl-amino)-5-fluoropyrimidin-4-yl)-4-methyl-1H-pyrrol-3-yl)methyl) pyrrolidin-3-ol]
ABL1(T315I)
  % of control ABL1(T315I): 35%
AURKB
  % of control binding: 31%
AXL
  % of control AXL: 31%
FLT3
  % of control: 1.1%
JAK3
  % of control JAK3: 5.4%
KIT
  % of control (remaining binding): 26%
KIT(D816V)
  % of control: 0.45%
KIT(V559D,T6701)
  Percent of control: 28%
MKNK2
  % of control binding MKNK2: 34%
MLK1
  % of control: 22%
PDGFRB
  % of control PDGFRB: 1.8%
PLK3
  percent of control (lower = stronger binding): 11%
RET
  RET binding, % of control: 32%
SNARK
  % of control SNARK: 4.2%
SRPK3
  % of control SRPK3 binding: 25%
SYK
  % of control SYK: 1%
TAK1
  % of control remaining TAK1 binding: 22%
TYK2
  % of control: 21%
ZAP70
  % of control ZAP70 binding (lower = stronger): 34%
